# Like-named read-outs stand apart in the source and are kept apart here.
# Legend:
# Assay in all cases: IB35 kinases profiling at 100 nM (ZLYTE)
# Format in all cases: biochemical
# LCK = LCK (Homo sapiens (Human), UniProt P06239); conditions: IB35 100 nM, ATP Km app
# Source text: (§1) The results are reported below
# JAK1 = JAK1 (Homo sapiens (Human), UniProt P23458); conditions: IB35 100 nM, ATP Km app
# Source text: as §1
# RAF1 (cRAF) Y340D Y341D = RAF1 (cRAF) Y340D Y341D (Homo sapiens (Human), UniProt P04049, Y340D/Y341D); conditions: IB35 100 nM, ATP 100
# Source text: as §1
# IRAK4 = IRAK4 (Homo sapiens (Human), UniProt Q9NWZ3); conditions: IB35 100 nM, ATP Km app
# Source text: as §1
# MAP2K1 (MEK1) = MAP2K1 (MEK1) (Homo sapiens (Human), UniProt Q02750); conditions: IB35 100 nM, ATP 100
# Source text: as §1
# MAPK9 (JNK2) = MAPK9 (JNK2) (Homo sapiens (Human), UniProt P45984); conditions: IB35 100 nM, ATP 100
# Source text: as §1
# MARK1 (MARK) = MARK1 (MARK) (Homo sapiens (Human), UniProt Q9P0L2); conditions: IB35 100 nM, ATP Km app
# Source text: as §1
# CDK5/p25 = CDK5/p25 (Homo sapiens (Human), UniProt Q00535); conditions: IB35 100 nM, ATP Km app
# Source text: as §1
# AKT3 (PKB gamma) = AKT3 (PKB gamma) (Homo sapiens (Human), UniProt Q9Y243); conditions: IB35 100 nM, ATP Km app
# Source text: as §1
# CDK2/cyclin A = CDK2/cyclin A (Homo sapiens (Human), UniProt P24941); conditions: IB35 100 nM, ATP Km app
# Source text: as §1
# ITK = ITK (Homo sapiens (Human), UniProt Q08881); conditions: IB35 100 nM, ATP Km app
# Source text: as §1
# GSK3B (GSK3 beta) = GSK3B (GSK3 beta) (Homo sapiens (Human), UniProt P49841); conditions: IB35 100 nM, ATP Km app
# Source text: as §1
# ROCK2 = ROCK2 (Homo sapiens (Human), UniProt O75116); conditions: IB35 100 nM, ATP Km app
# Source text: as §1
# SRC = SRC (Homo sapiens (Human), UniProt P12931); conditions: IB35 100 nM, ATP Km app
# Source text: as §1
# PRKCB1 (PKC beta I) = PRKCB1 (PKC beta I) (Homo sapiens (Human), UniProt P05771); conditions: IB35 100 nM, ATP Km app
# Source text: as §1
# AKT1 (PKB alpha) = AKT1 (PKB alpha) (Homo sapiens (Human), UniProt P31749); conditions: IB35 100 nM, ATP Km app
# Source text: as §1
# CSNK1A1 (CK1 alpha 1) = CSNK1A1 (CK1 alpha 1) (Homo sapiens (Human), UniProt P48729); conditions: IB35 100 nM, ATP Km app
# Source text: as §1
# [1] = target: MAPK14 (p38 alpha) Direct (Homo sapiens (Human), UniProt Q16539); conditions: IB35 100 nM, ATP Km app
# Source text: as §1
# MAPK3 (ERK1) = MAPK3 (ERK1) (Homo sapiens (Human), UniProt P27361); conditions: IB35 100 nM, ATP Km app
# Source text: as §1
# CDK5/p35 = CDK5/p35 (Homo sapiens (Human), UniProt Q00535); conditions: IB35 100 nM, ATP Km app
# Source text: as §1
# GSK3A (GSK3 alpha) = GSK3A (GSK3 alpha) (Homo sapiens (Human), UniProt P49840); conditions: IB35 100 nM, ATP Km app
# Source text: as §1
# CHEK1 (CHK1) = CHEK1 (CHK1) (Homo sapiens (Human), UniProt O14757); conditions: IB35 100 nM, ATP Km app
# Source text: as §1
# PRKACA (PKA) = PRKACA (PKA) (Homo sapiens (Human), UniProt P17612); conditions: IB35 100 nM, ATP Km app
# Source text: as §1
# ROCK1 = ROCK1 (Homo sapiens (Human), UniProt Q13464); conditions: IB35 100 nM, ATP Km app
# Source text: as §1
# CLK1 = CLK1 (Homo sapiens (Human), UniProt P49759); conditions: IB35 100 nM, ATP Km app
# Source text: as §1
# FRAP1 (mTOR) = FRAP1 (mTOR) (Homo sapiens (Human), UniProt P42345); conditions: IB35 100 nM, ATP Km app
# Source text: as §1
# ABL1 = ABL1 (Homo sapiens (Human), UniProt P00519); conditions: IB35 100 nM, ATP Km app
# Source text: as §1
# Chain of MAPK14 (p38 alpha) Direct (Q16539 whole entry): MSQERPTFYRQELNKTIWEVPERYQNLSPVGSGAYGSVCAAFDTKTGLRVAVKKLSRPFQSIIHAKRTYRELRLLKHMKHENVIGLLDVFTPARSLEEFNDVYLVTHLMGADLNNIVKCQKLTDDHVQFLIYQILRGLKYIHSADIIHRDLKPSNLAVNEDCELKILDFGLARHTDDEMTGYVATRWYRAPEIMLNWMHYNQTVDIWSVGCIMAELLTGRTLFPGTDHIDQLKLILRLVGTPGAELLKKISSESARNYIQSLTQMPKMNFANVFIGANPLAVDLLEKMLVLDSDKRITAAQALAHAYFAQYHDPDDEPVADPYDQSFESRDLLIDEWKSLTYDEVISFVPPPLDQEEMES
# Chain of IRAK4 (Q9NWZ3 whole entry, species assumed): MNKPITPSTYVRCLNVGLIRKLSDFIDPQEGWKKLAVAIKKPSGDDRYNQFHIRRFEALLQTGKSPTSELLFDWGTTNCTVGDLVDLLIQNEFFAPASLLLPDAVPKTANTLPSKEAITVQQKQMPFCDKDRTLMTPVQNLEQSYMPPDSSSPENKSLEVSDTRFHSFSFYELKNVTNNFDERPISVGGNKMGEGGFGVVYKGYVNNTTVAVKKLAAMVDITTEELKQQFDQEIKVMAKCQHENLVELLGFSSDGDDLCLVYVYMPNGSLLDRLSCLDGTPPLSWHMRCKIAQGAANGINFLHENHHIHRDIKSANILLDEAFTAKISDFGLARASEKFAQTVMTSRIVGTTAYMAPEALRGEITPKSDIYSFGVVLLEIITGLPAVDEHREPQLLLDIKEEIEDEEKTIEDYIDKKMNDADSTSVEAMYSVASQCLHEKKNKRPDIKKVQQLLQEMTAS
# Chain of GSK3B (GSK3 beta) (P49841 whole entry, species assumed): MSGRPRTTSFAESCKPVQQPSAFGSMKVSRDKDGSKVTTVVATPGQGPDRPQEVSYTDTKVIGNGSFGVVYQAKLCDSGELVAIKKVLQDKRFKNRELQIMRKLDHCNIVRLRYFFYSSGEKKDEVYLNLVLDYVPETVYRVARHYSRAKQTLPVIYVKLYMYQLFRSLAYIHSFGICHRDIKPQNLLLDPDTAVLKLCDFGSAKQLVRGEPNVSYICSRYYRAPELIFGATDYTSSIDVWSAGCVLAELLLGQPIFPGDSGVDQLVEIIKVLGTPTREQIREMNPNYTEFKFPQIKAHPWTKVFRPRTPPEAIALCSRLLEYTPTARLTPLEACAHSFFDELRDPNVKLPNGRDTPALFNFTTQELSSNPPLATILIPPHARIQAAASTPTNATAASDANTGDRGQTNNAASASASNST
# Chain of CDK5/p35 (Q00535 whole entry): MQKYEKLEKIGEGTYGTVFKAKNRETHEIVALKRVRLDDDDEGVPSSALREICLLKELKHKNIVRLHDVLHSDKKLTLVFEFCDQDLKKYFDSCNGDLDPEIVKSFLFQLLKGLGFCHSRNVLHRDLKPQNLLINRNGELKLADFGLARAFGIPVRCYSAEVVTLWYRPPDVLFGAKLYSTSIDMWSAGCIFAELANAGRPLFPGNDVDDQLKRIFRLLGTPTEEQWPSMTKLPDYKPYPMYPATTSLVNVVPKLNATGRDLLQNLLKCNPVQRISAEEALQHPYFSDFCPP
# Chain of CDK5/p35 (Q15078 whole entry partner): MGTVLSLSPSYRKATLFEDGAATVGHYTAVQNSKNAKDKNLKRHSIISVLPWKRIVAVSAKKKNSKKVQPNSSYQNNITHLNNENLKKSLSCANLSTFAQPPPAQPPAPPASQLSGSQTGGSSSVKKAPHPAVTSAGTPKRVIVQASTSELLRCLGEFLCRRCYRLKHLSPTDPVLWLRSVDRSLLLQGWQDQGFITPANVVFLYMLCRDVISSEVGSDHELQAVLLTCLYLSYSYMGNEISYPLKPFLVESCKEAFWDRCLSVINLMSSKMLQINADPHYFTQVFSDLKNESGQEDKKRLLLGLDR
# Chain of CDK5/p25 (Q00535 whole entry): as the sequence (Q00535 whole entry) above
# Chain of CDK5/p25 (Q15078 99-307 partner): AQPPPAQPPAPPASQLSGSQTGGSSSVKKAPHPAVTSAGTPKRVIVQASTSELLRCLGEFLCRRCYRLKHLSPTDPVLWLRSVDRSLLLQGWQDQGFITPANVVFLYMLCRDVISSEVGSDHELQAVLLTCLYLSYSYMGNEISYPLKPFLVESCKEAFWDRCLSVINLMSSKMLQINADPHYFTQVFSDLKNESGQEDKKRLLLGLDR
# Chain of RAF1 (cRAF) Y340D Y341D (P04049 whole entry Y340D/Y341D, species assumed): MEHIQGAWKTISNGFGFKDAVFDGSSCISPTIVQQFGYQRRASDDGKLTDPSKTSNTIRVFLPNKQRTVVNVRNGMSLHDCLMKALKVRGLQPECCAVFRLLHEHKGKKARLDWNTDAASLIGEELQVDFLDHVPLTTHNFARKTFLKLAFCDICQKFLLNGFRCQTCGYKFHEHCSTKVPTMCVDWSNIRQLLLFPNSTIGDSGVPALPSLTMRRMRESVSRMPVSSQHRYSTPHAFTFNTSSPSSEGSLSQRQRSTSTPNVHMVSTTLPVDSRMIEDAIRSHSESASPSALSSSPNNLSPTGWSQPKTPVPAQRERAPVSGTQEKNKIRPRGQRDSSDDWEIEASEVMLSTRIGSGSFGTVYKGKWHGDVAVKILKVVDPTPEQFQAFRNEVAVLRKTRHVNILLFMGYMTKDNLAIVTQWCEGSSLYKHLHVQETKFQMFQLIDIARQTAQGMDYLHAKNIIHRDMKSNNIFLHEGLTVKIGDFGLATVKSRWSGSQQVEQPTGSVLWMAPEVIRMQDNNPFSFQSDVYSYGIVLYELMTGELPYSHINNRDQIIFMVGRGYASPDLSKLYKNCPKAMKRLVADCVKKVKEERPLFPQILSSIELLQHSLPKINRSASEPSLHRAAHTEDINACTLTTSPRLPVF
# Chain of MAP2K1 (MEK1) (Q02750 whole entry, species assumed): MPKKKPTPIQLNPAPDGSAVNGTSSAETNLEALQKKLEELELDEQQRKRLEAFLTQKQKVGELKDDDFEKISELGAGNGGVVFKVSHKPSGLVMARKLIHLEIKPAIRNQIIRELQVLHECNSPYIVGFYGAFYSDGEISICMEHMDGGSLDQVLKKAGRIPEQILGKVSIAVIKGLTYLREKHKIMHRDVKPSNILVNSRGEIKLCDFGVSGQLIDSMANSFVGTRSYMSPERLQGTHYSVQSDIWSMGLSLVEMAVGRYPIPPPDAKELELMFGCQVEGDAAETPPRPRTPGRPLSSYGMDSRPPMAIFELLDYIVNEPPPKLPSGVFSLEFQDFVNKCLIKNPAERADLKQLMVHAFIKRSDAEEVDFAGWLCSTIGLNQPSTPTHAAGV
# Chain of LCK (P06239 whole entry, species assumed): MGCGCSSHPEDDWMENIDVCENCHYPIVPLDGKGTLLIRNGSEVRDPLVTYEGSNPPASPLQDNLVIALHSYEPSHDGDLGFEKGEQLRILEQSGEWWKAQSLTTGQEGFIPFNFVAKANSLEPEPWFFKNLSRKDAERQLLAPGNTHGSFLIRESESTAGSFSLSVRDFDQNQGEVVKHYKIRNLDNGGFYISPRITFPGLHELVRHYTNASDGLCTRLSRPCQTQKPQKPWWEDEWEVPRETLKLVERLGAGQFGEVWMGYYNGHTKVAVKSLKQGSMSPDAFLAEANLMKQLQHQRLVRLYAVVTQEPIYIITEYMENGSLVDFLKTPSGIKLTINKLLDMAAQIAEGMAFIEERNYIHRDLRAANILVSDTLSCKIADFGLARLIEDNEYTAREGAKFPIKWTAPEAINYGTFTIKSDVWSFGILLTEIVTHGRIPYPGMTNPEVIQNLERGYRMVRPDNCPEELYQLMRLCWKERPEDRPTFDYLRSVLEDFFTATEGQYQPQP
# Chain of AKT3 (PKB gamma) (Q9Y243 whole entry): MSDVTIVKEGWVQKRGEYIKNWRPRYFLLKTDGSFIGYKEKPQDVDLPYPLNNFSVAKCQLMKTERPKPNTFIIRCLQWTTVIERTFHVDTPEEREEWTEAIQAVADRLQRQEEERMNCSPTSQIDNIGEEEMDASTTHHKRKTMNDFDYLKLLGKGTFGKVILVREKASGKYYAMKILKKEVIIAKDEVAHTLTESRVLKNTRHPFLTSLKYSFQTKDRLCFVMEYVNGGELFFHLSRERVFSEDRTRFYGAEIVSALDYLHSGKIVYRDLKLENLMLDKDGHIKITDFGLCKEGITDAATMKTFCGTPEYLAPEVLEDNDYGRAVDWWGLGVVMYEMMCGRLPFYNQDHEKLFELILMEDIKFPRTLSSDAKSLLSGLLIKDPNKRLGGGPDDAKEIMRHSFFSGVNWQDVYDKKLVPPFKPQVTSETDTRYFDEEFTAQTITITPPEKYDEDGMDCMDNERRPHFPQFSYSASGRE
# Chain of MAPK9 (JNK2) (P45984 whole entry, species assumed): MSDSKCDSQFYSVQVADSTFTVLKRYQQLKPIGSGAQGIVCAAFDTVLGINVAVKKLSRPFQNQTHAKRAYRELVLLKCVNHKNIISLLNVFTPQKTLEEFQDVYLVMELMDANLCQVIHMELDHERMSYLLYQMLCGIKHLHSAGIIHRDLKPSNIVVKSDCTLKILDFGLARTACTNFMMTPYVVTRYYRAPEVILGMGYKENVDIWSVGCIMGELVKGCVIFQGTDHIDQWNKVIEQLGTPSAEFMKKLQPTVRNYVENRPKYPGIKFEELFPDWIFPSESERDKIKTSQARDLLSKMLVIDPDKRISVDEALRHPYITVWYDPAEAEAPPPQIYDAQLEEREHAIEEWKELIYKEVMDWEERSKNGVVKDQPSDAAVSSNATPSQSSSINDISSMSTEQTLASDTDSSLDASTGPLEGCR
smiles,measurement,setting,value
"O=C(CNC(=O)c1cccn(Cc2ccc(F)c(F)c2)c1=O)Nc1ccc2c(c1)/C(=C/c1cnc[nH]1)C(=O)N2 [IB35, (Z)—N-(2-((3-((1H-imidazol-5-yl)methylene)-2-oxoindolin-5-yl)amino)-2-oxoethyl)-1-(3,4-difluorobenzyl)-2-oxo-1,2-dihydro pyridine-3-carboxamide]",inhibition at 0.1 µM,LCK; read-out: % Inhibition 1,10%
same,inhibition at 0.1 µM,LCK; read-out: % Inhibition 2,8%
same,inhibition at 0.1 µM,LCK; read-out: % Inhibition Avg,9%
same,inhibition at 0.1 µM,JAK1; read-out: % Inhibition 1,-10%
same,inhibition at 0.1 µM,JAK1; read-out: % Inhibition 2,-6%
same,inhibition at 0.1 µM,JAK1; read-out: % Inhibition Avg,-8%
same,inhibition at 0.1 µM,RAF1 (cRAF) Y340D Y341D; read-out: % Inhibition 1,10%
same,inhibition at 0.1 µM,RAF1 (cRAF) Y340D Y341D; read-out: % Inhibition 2,11%
same,inhibition at 0.1 µM,RAF1 (cRAF) Y340D Y341D; read-out: % Inhibition Avg,10%
same,inhibition at 0.1 µM,IRAK4; read-out: % Inhibition 1,3%
same,inhibition at 0.1 µM,IRAK4; read-out: % Inhibition 2,-14%
same,inhibition at 0.1 µM,IRAK4; read-out: % Inhibition Avg,-6%
same,inhibition at 0.1 µM,MAP2K1 (MEK1); read-out: % Inhibition 1,-20%
same,inhibition at 0.1 µM,MAP2K1 (MEK1); read-out: % Inhibition 2,-6%
same,inhibition at 0.1 µM,MAP2K1 (MEK1); read-out: % Inhibition Avg,-13%
same,inhibition at 0.1 µM,MAPK9 (JNK2); read-out: % Inhibition 1,3%
same,inhibition at 0.1 µM,MAPK9 (JNK2); read-out: % Inhibition 2,-5%
same,inhibition at 0.1 µM,MAPK9 (JNK2); read-out: % Inhibition Avg,-1%
same,inhibition at 0.1 µM,MARK1 (MARK); read-out: % Inhibition 1,20%
same,inhibition at 0.1 µM,MARK1 (MARK); read-out: % Inhibition 2,13%
same,inhibition at 0.1 µM,MARK1 (MARK); read-out: % Inhibition Avg,17%
same,inhibition at 0.1 µM,CDK5/p25; read-out: % Inhibition 1,-7%
same,inhibition at 0.1 µM,CDK5/p25; read-out: % Inhibition 2,-10%
same,inhibition at 0.1 µM,CDK5/p25; read-out: % Inhibition Avg,-8%
same,inhibition at 0.1 µM,AKT3 (PKB gamma); read-out: % Inhibition 1,3%
same,inhibition at 0.1 µM,AKT3 (PKB gamma); read-out: % Inhibition 2,1%
same,inhibition at 0.1 µM,AKT3 (PKB gamma); read-out: % Inhibition Avg,2%
same,inhibition at 0.1 µM,CDK2/cyclin A; read-out: % Inhibition 1,-1%
same,inhibition at 0.1 µM,CDK2/cyclin A; read-out: % Inhibition 2,8%
same,inhibition at 0.1 µM,CDK2/cyclin A; read-out: % Inhibition Avg,4%
same,inhibition at 0.1 µM,ITK; read-out: % Inhibition 1,17%
same,inhibition at 0.1 µM,ITK; read-out: % Inhibition 2,12%
same,inhibition at 0.1 µM,ITK; read-out: % Inhibition Avg,14%
same,inhibition at 0.1 µM,GSK3B (GSK3 beta); read-out: % Inhibition 1,23%
same,inhibition at 0.1 µM,GSK3B (GSK3 beta); read-out: % Inhibition 2,25%
same,inhibition at 0.1 µM,GSK3B (GSK3 beta); read-out: % Inhibition Avg,24%
same,inhibition at 0.1 µM,ROCK2; read-out: % Inhibition 1,3%
same,inhibition at 0.1 µM,ROCK2; read-out: % Inhibition 2,1%
same,inhibition at 0.1 µM,ROCK2; read-out: % Inhibition Avg,2%
same,inhibition at 0.1 µM,SRC; read-out: % Inhibition 1,8%
same,inhibition at 0.1 µM,SRC; read-out: % Inhibition 2,6%
same,inhibition at 0.1 µM,SRC; read-out: % Inhibition Avg,7%
same,inhibition at 0.1 µM,PRKCB1 (PKC beta I); read-out: % Inhibition 1,-10%
same,inhibition at 0.1 µM,PRKCB1 (PKC beta I); read-out: % Inhibition 2,-10%
same,inhibition at 0.1 µM,PRKCB1 (PKC beta I); read-out: % Inhibition Avg,-10%
same,inhibition at 0.1 µM,AKT1 (PKB alpha); read-out: % Inhibition 1,-6%
same,inhibition at 0.1 µM,AKT1 (PKB alpha); read-out: % Inhibition 2,-9%
same,inhibition at 0.1 µM,AKT1 (PKB alpha); read-out: % Inhibition Avg,-8%
same,inhibition at 0.1 µM,CSNK1A1 (CK1 alpha 1); read-out: % Inhibition 1,-3%
same,inhibition at 0.1 µM,CSNK1A1 (CK1 alpha 1); read-out: % Inhibition 2,-2%
same,inhibition at 0.1 µM,CSNK1A1 (CK1 alpha 1); read-out: % Inhibition Avg,-2%
same,inhibition at 0.1 µM,[1]; read-out: % Inhibition 1,2%
same,inhibition at 0.1 µM,[1]; read-out: % Inhibition 2,4%
same,inhibition at 0.1 µM,[1]; read-out: % Inhibition Avg,3%
same,inhibition at 0.1 µM,MAPK3 (ERK1); read-out: % Inhibition 1,-8%
same,inhibition at 0.1 µM,MAPK3 (ERK1); read-out: % Inhibition 2,1%
same,inhibition at 0.1 µM,MAPK3 (ERK1); read-out: % Inhibition Avg,-3%
same,inhibition at 0.1 µM,CDK5/p35; read-out: % Inhibition 1,-2%
same,inhibition at 0.1 µM,CDK5/p35; read-out: % Inhibition 2,6%
same,inhibition at 0.1 µM,CDK5/p35; read-out: % Inhibition Avg,2%
same,inhibition at 0.1 µM,GSK3A (GSK3 alpha); read-out: % Inhibition 1,43%
same,inhibition at 0.1 µM,GSK3A (GSK3 alpha); read-out: % Inhibition 2,43%
same,inhibition at 0.1 µM,GSK3A (GSK3 alpha); read-out: % Inhibition Avg,43%
same,inhibition at 0.1 µM,CHEK1 (CHK1); read-out: % Inhibition 1,10%
same,inhibition at 0.1 µM,CHEK1 (CHK1); read-out: % Inhibition 2,2%
same,inhibition at 0.1 µM,CHEK1 (CHK1); read-out: % Inhibition Avg,6%
same,inhibition at 0.1 µM,PRKACA (PKA); read-out: % Inhibition 1,-5%
same,inhibition at 0.1 µM,PRKACA (PKA); read-out: % Inhibition 2,-5%
same,inhibition at 0.1 µM,PRKACA (PKA); read-out: % Inhibition Avg,-5%
same,inhibition at 0.1 µM,ROCK1; read-out: % Inhibition 1,-9%
same,inhibition at 0.1 µM,ROCK1; read-out: % Inhibition 2,-6%
same,inhibition at 0.1 µM,ROCK1; read-out: % Inhibition Avg,-7%
same,inhibition at 0.1 µM,CLK1; read-out: % Inhibition 1,4%
same,inhibition at 0.1 µM,CLK1; read-out: % Inhibition 2,-7%
same,inhibition at 0.1 µM,CLK1; read-out: % Inhibition Avg,-2%
same,inhibition at 0.1 µM,FRAP1 (mTOR); read-out: % Inhibition 1,-10%
same,inhibition at 0.1 µM,FRAP1 (mTOR); read-out: % Inhibition 2,-18%
same,inhibition at 0.1 µM,FRAP1 (mTOR); read-out: % Inhibition Avg,-14%
same,inhibition at 0.1 µM,ABL1; read-out: % Inhibition 1,17%
same,inhibition at 0.1 µM,ABL1; read-out: % Inhibition 2,12%
same,inhibition at 0.1 µM,ABL1; read-out: % Inhibition Avg,14%

# — patent publication US10351548B2, “2-oxo-1,2-dihydropyridine-3-carboxamide compounds and their use as inhibitors of PDK1” (INTERNATIONAL SOCIETY FOR DRUG DEVELOPMENT S.R.L., priority 2015, dated 2019)
